Measured values taken from patent US6355799B1, “Substituted benzene compounds, process for their preparation, and herbicidal and defoliant compositions containing them” (ISK Americas Incorporated, priority 1997, dated 2002).

Legend:
Assay type in all cases: in vivo
[1] = test system: sicklepod (Cassia obtusifolia, CASOB); assay: Pre-emerge test, greenhouse herbicide activity screening; details: phytotoxicity rating 0-100, 14 days after application
How it was run: (§1)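 Herbicidal damage is scored 0 (none) to 100 (complete plant death) two weeks after a simulated field spray. Rates span 15–1000 g ai/ha, delivered in acetone at 187 l/ha. For post-emergence treatments, plants have 2–3 leaves and the spray carries 0.25% v/v non-ionic surfactant.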

[2] = test system: velvetleaf (Abutilon theophrasti, ABUTH); assay: as above; details: phytotoxicity rating 0-100, 14 days after application
How it was run: as §1

[3] = test system: green foxtail (Setaria viridis, SETVI); assay: as above; details: phytotoxicity rating 0-100, 14 days after application
How it was run: as §1

[4] = test system: johnsongrass (Sorghum halepense, SORHA); assay: as above; details: phytotoxicity rating 0-100, 14 days after application
How it was run: as §1

[5] = test system: large crabgrass (Digitaria sanguinalis, DIGSA); assay: as above; details: phytotoxicity rating 0-100, 14 days after application
How it was run: as §1

[6] = test system: ivyleaf morningglory (Ipomoea hederacea, IPOHE); assay: as above; details: phytotoxicity rating 0-100, 14 days after application
How it was run: as §1

[7] = test system: lambsquarters (Chenopodium album, CHEAL); assay: as above; details: phytotoxicity rating 0-100, 14 days after application
How it was run: as §1

[8] = test system: barnyardgrass (Echinochloa crus-galli, ECHCG); assay: as above; details: phytotoxicity rating 0-100, 14 days after application
How it was run: as §1

[9] = test system: redroot pigweed (Amaranthus retroflexus, AMARE); assay: as above; details: phytotoxicity rating 0-100, 14 days after application
How it was run: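 Compounds in acetone were track-sprayed at 187 l/ha, 15–1000 g ai/ha, onto sandy loam pots. Pre-emerge seeds were sown one day before spraying, with surface watering afterwards. Post-emerge plants were at the 2–3 leaf stage and sprayed with 0.25% v/v non-ionic surfactant. Injury was rated 0–100 at 14 days.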

[10] = test system: sicklepod (Cassia obtusifolia, CASOB); assay: Post-emerge test, greenhouse herbicide activity screening; details: post-emerge, 14 days after application, rating scale 0-100
How it was run: (§2)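 Visual ratings on a 0-100 scale (0 no damage, 100 all plants dead) were taken at 14 days after treatment. Rates of 15-1000 g ai/ha in acetone, 187 l/ha, were sprayed onto soil one day after planting (pre-emerge) or onto 2-3 leaf plants with 0.25% v/v surfactant (post-emerge).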

[11] = test system: velvetleaf (Abutilon theophrasti, ABUTH); assay: as above; details: post-emerge, 14 days after application, rating scale 0-100
How it was run: as §2

[12] = test system: green foxtail (Setaria viridis, SETVI); assay: as above; details: post-emerge, 14 days after application, rating scale 0-100
How it was run: as §2

[13] = test system: johnsongrass (Sorghum halepense, SORHA); assay: as above; details: post-emerge, 14 days after application, rating scale 0-100
How it was run: as §2

[14] = test system: large crabgrass (Digitaria sanguinalis, DIGSA); assay: as above; details: post-emerge, 14 days after application, rating scale 0-100
How it was run: as §2

[15] = test system: ivyleaf morningglory (Ipomoea hederacea, IPOHE); assay: as above; details: post-emerge, 14 days after application, rating scale 0-100
How it was run: as §2

[16] = test system: lambsquarters (Chenopodium album, CHEAL); assay: as above; details: post-emerge, 14 days after application, rating scale 0-100
How it was run: as §2

[17] = test system: barnyardgrass (Echinochloa crus-galli, ECHCG); assay: as above; details: post-emerge, 14 days after application, rating scale 0-100
How it was run: as §2

[18] = test system: redroot pigweed (Amaranthus retroflexus, AMARE); assay: as above; details: post-emerge, 14 days after application
How it was run: as §2

[19] = test system: field corn (Zea mays L., var. Dekalb 535, CORN); assay: Post-emerge test, crop safety; details: post-emerge, 14 days after application, rating scale 0-100
How it was run: as §1

[20] = test system: upland rice (Oryza sp., var. Tebonnet, RICE); assay: Post-emerge test, crop safety; details: post-emerge, 14 days after application, rating scale 0-100
How it was run: as §1

[21] = test system: field corn (Zea mays L., var. Dekalb 535, CORN); assay: Pre-emerge test, crop safety; details: crop damage rating 0-100, 14 days after application
How it was run: as §1

[22] = test system: upland rice (Oryza sp., var. Tebonnet, RICE); assay: Pre-emerge test, crop safety; details: crop damage rating 0-100, 14 days after application
How it was run: as §1

CCc1ccc(COC(=O)Nc2c(OC)c(Cl)cc(F)c2-n2c(=O)cc(C(F)(F)F)n(C)c2=O)cc1 [4-31]
Pre-emerge Herbicidal Activity CASOB ([1]; 63 g ai/ha): 0
Pre-emerge Herbicidal Activity CASOB ([1]; 250 g ai/ha): 10
Pre-emerge Herbicidal Activity ABUTH ([2]; 63 g ai/ha): 30
Pre-emerge Herbicidal Activity ABUTH ([2]; 250 g ai/ha): 100
Pre-emerge Herbicidal Activity SETVI ([3]; 63 g ai/ha): 90
Pre-emerge Herbicidal Activity SETVI ([3]; 250 g ai/ha): 100
Pre-emerge Herbicidal Activity SORHA ([4]; 63 g ai/ha): 10
Pre-emerge Herbicidal Activity SORHA ([4]; 250 g ai/ha): 20
Pre-emerge Herbicidal Activity DIGSA ([5]; 63 g ai/ha): 50
Pre-emerge Herbicidal Activity DIGSA ([5]; 250 g ai/ha): 100
Pre-emerge Herbicidal Activity IPOHE ([6]; 63 g ai/ha): 0
Pre-emerge Herbicidal Activity IPOHE ([6]; 250 g ai/ha): 40
Pre-emerge Herbicidal Activity CHEAL ([7]; 63 g ai/ha): 90
Pre-emerge Herbicidal Activity CHEAL ([7]; 250 g ai/ha): 100
Pre-emerge Herbicidal Activity ECHCG ([8]; 63 g ai/ha): 10
Pre-emerge Herbicidal Activity ECHCG ([8]; 250 g ai/ha): 30
Pre-emerge Herbicidal Activity AMARE ([9]; 63 g ai/ha): 100
Pre-emerge Herbicidal Activity AMARE ([9]; 250 g ai/ha): 100
phytotoxicity rating CASOB ([10]; 63 g ai/ha): 10
phytotoxicity rating CASOB ([10]; 250 g ai/ha): 30
phytotoxicity rating ABUTH ([11]; 63 g ai/ha): 100
phytotoxicity rating ABUTH ([11]; 250 g ai/ha): 100
phytotoxicity rating SETVI ([12]; 63 g ai/ha): 20
phytotoxicity rating SETVI ([12]; 250 g ai/ha): 40
phytotoxicity rating SORHA ([13]; 63 g ai/ha): 0
phytotoxicity rating SORHA ([13]; 250 g ai/ha): 10
phytotoxicity rating DIGSA ([14]; 63 g ai/ha): 0
phytotoxicity rating DIGSA ([14]; 250 g ai/ha): 10
phytotoxicity rating IPOHE ([15]; 63 g ai/ha): 100
phytotoxicity rating IPOHE ([15]; 250 g ai/ha): 100
phytotoxicity rating CHEAL ([16]; 63 g ai/ha): 100
phytotoxicity rating CHEAL ([16]; 250 g ai/ha): 100
phytotoxicity rating ECHCG ([17]; 63 g ai/ha): 10
phytotoxicity rating ECHCG ([17]; 250 g ai/ha): 10
phytotoxicity rating AMARE ([18]; 63 g ai/ha, rating scale 0-100 (0 no damage, 100 complete death)): 100
phytotoxicity rating AMARE ([18]; 250 g ai/ha, rating scale 0-100): 100
phytotoxicity rating CORN (crop damage) ([19]; 63 g ai/ha): 10
phytotoxicity rating CORN (crop damage) ([19]; 250 g ai/ha): 25
phytotoxicity rating RICE (crop damage) ([20]; 63 g ai/ha): 20
phytotoxicity rating RICE (crop damage) ([20]; 250 g ai/ha): 40
Pre-emerge Herbicidal Activity CORN ([21]; 63 g ai/ha): 0
Pre-emerge Herbicidal Activity CORN ([21]; 250 g ai/ha): 10
Pre-emerge Herbicidal Activity RICE ([22]; 63 g ai/ha): 10
Pre-emerge Herbicidal Activity RICE ([22]; 250 g ai/ha): 30
